In patent US20240148819A1, “COMPOUNDS FOR USE IN THE TREATMENT OF SINUSITIS, PNEUMONIA OR OTITIS” (PHARMA HOLDINGS AS, priority 2021, published 2024):
In brackets after ≈: the same amount, converted by molar mass. Read-outs that look alike come from different tables or passages of the source.

Columns and labels:
[1] = system: Influenza A strain A/WSN/33 (H1N1); format: cell-based, Influenza A virus
[2] = system: Rhinovirus (HRV-A60), Strain: 2268-CV37; test: TCID50 assay after 1 h incubation of virus with LTX-7 (Example 10); format: cell-based; details: 1% LTX-7 or 0.25% SDS; for % Reduction: Rhinovirus infectivity; for % Reduction / Log decrease: compared to PBS control; for Log decrease: Rhinovirus
Moraxella catarrhalis = system: Moraxella catarrhalis
Protocol: (§1) Bacterial and fungal isolates used in this study were from various sources worldwide stored at GR Micro Ltd. and maintained, with minimal sub-culture, deep frozen at −70° C. as a dense suspension in a high protein matrix of undiluted horse serum.
(§2) Minimum inhibitory concentration (MIC) of LTX-109 was determined using the following microbroth dilution methods for antimicrobial susceptibility testing published by the Clinical and Laboratory Standards Institute (CLSI, formerly NCCLS): • M7-A6 Vol. 23 No. 2 Jan. 2003 Methods for Dilution Antimicrobial Susceptibility Tests for Bacteria that Grow Aerobically; Approved Standard-Sixth Edition. National Committee for Clinical Laboratory Standards. • M100-S15 Vol. 25 No 1. January 2005 Performance Standards for Antimicrobial Susceptibility Testing; Fifteenth Informational Supplement. Clinical and Laboratory Standards Institute • M11-A6 Vol. 24 No. 2 Methods for Antimicrobial Susceptibility Testing of Anaerobic Bacteria; Approved Standard-Sixth Edition. National Committee for Clinical Laboratory Standards. • M27-A2 Vol. 22 No. 15 Reference Method for Broth Dilution Antifungal Susceptibility Testing of Yeasts; Approved Standard-Second Edition. National Committee for Clinical Laboratory Standards. • M38-A Vol. 22 No. 16 Reference Method for Broth Dilution Antifungal Susceptibility Testing of Filamentous Fungi; Approved Standard. National Committee for Clinical Laboratory Standards.
(§3) MIC estimations were performed using wet plates, containing the LTX-109, prepared at GR Micro Ltd.
(§4) Cation-adjusted Mueller-Hinton broth (Oxoid Ltd., Basingstoke, UK and Trek Diagnostic Systems Ltd., East Grinstead, UK) (supplemented with 5% laked horse blood for Streptococcus spp.) was used for aerobic bacteria, with an initial inoculum of approximately 10^5 colony-forming units (CFU)/mL.
(§5) Following normal practice all the plates containing Mueller-Hinton broth were prepared in advance, frozen at −70° C. on the day of preparation and defrosted on the day of use. Fungal, Haemophilus and anaerobic MIC determinations were all performed in plates prepared on the same day.

Streptococcus pneumoniae = system: Streptococcus pneumoniae
Protocol: as §1, §2, §3, §4, §5

Streptococcus pyogenes = Streptococcus pyogenes - macrolide (MLS) resistant clinical isolate
Protocol: as §1, §2, §3, §4, §5

Aspergillus niger = Aspergillus niger - G. R. Micro collection
Protocol: as §1, §2, §3
(§6) Yeast and filamentous fungal MIC were performed in MOPS buffered RPMI 1640 medium (MOPS buffer obtained from Sigma Aldrich Ltd., RPMI 1640 obtained from Invitrogen Ltd, Paisley, Scotland). The yeast inocula were in the range 7.5×10^2-4×10^3 CFU/mL and the filamentous fungi approximately 8×10^3-1×10^5 CFU/mL.
as §5

Candida albicans = system: Candida albicans
Protocol: as §1, §2, §3, §6, §5

Candida krusei = Candida krusei - ATCC6258 - reference strain
Protocol: as §1, §2, §3, §6, §5

Candida parapsilosis = Candida parapsilosis - ATCC90018 - reference strain
Protocol: as §1, §2, §3, §6, §5

Candida tropicalis = Candida tropicalis - ATCC750 - reference strain
Protocol: as §1, §2, §3, §6, §5

Mycoplasma pneumoniae = details: both of the library strains of Mycoplasma pneumoniae
Protocol: Two library strains of Mycoplasma pneumoniae were used. These strains were stored at GR Micro Ltd. and maintained, with minimal sub-culture, deep frozen at −70° C. as a dense suspension in a high protein matrix of undiluted horse serum.
MIC determination was carried out using a broth microdilution method in Mycoplasma Broth Base (Oxoid Ltd, Hampshire, UK), prepared according to the manufacturer's instructions.

MDCK-II cells = details: 1% LTX-7 (w/v) or 0.2% Triton X-100 in PBS, contact time 1 h, after filtration, no virus
Protocol: (§7) A parallel test where the same procedure was carried out in the absence of virus was included to determine any residual cytotoxic effect of LTX-7 on the assay cells.

HeLaM cells = details: 1% LTX-7 (w/v) or 0.25% SDS in PBS, contact time 1 h, after filtration, no virus
Protocol: as §7

[3] = system: SARS-CoV-2 isolate England/02/2020; format: cell-based
Vero cells = test: Parallel test without virus for residual cytotoxicity (Example 8); details: 1% LTX-12 (w/v) or 0.2% Triton in PBS, contact time 1 h, after filtration, no virus
Rhinovirus 60, 2268-CV37 [4] = test: TCID50 assay after 1 h incubation of virus with 1% LTX-109 (Example 6); format: cell-based
Rhinovirus 60, 2268-CV37 [5] = test: TCID50 assay after 1 h incubation of virus with 3% LTX-109, stopped by dilution (Example 7); format: cell-based
HeLa cells [6] = test: Parallel test without virus for residual cytotoxicity (Example 7); format: cell-based, human; details: 3% LTX-109 (w/v) or 0.25% SDS, after dilution (50 μl in 5 ml), no virus
Protocol: (§8) A parallel test where the same procedure was carried out in the absence of virus was included to determine any residual cytotoxic effect of the formulation on the assay cells.

HeLa cells [7] = details: 1% LTX-109 (w/v) or 0.25% SDS, after filtration, no virus, dilution showing cytotoxicity
Protocol: as §8

`N=C(N)NCCCC(N)C(=O)NC(Cc1ccc(-c2ccc3ccccc3c2)cc1)C(=O)NC(CCCNC(=N)N)C(=O)NCCc1ccccc1` (stereo not drawn) [LTX-7, Arg-Phe(4-(2-Naphthyl))-Arg-NH—CH2—CH2-Ph] was tested, and the “% Reduction” value [1] was 99.9988%, the “% Reduction” value [2] was 95.791% and the Log decrease [2] was 1.33 log. It also gave an MIC (Moraxella catarrhalis; Moraxella catarrhalis - reduced fluoroquinolone susceptibility clinical isolate) of 8 µg/mL (≈ 11.3 µM), an MIC (Moraxella catarrhalis; Moraxella catarrhalis - β-lactamase positive clinical isolate) of 4 µg/mL (≈ 5.66 µM) and an MIC (Streptococcus pneumoniae; Streptococcus pneumoniae - penicillin intermediate clinical isolate) of 32 µg/mL (≈ 45.3 µM). For the same molecule, the MIC (Streptococcus pneumoniae; Streptococcus pneumoniae - penicillin resistant clinical isolate) was 32 µg/mL (≈ 45.3 µM), the MIC (Streptococcus pyogenes) was 32 µg/mL (≈ 45.3 µM) and the MIC (Aspergillus niger) was 4 µg/mL (≈ 5.66 µM). It also gave an MIC (Candida albicans; Candida albicans - ATCC24433 - reference strain) of 2 µg/mL (≈ 2.83 µM), an MIC (Candida albicans; Candida albicans - ATCC90028 - reference strain) of 2 µg/mL (≈ 2.83 µM) and an MIC (Candida krusei) of 4 µg/mL (≈ 5.66 µM). The MIC (Candida parapsilosis) was 4 µg/mL (≈ 5.66 µM), the MIC (Candida tropicalis) was 2 µg/mL (≈ 2.83 µM) and the MIC (Mycoplasma pneumoniae) was 32 µg/mL (≈ 45.3 µM). For the same molecule, the Cytotoxicity (MDCK-II cells) was “neat” and the Cytotoxicity (HeLaM cells) was “Neat”.
With `CC(C)(C)c1cc(C(C)(C)C)c2[nH]c(C(C)(C)C)c(CC(NC(=O)C(N)CCCCN)C(=O)NC(CCCCN)C(=O)NCCc3ccccc3)c2c1` (stereo not drawn) [LTX-12, Lys-Tbt-Lys-NH—CH2—CH2-Ph] the “% Reduction” value [3] was 99.977% and the Cytotoxicity (Vero cells) was “No cytotoxicity”.
With `CCCCCCCCCCCCOS(=O)(=O)[O-].[Na+]` [SDS, Sodium dodecyl sulphate] the “TCID50/ml ± SEM” value (Rhinovirus 60, 2268-CV37 [4]; Rhinovirus titre recovered after 1 hour with 1% LTX-109 (w/v) or 0.25% SDS, filtration, HeLa cells, 7 days) was 1.00E+02 TCID50/ml, the Log decrease (Rhinovirus 60, 2268-CV37 [4]; Rhinovirus, 1% LTX-109 or 0.25% SDS, 1 hour, compared to PBS control) was 3.6 log and the Percentage (Rhinovirus 60, 2268-CV37 [4]; decrease in Rhinovirus infectivity, 1% LTX-109 or 0.25% SDS, 1 hour, compared to PBS control) was 99.98%. The Log (Rhinovirus 60, 2268-CV37 [4]; log of Rhinovirus titre after 1 hour with 1% LTX-109 or 0.25% SDS) was 2.0, the “TCID50/ml ± SEM” value (Rhinovirus 60, 2268-CV37 [5]; Rhinovirus titre recovered after 1 hour with 3% LTX-109 (w/v) or 0.25% SDS, dilution, no filter, HeLa cells, 7 days) was 1.58E+01 TCID50/ml and the Log decrease (Rhinovirus 60, 2268-CV37 [5]; Rhinovirus, 3% LTX-109 or 0.25% SDS, 1 hour, compared to PBS control) was 3.0 log. For the same molecule, the Percentage (Rhinovirus 60, 2268-CV37 [5]; decrease in Rhinovirus infectivity, 3% LTX-109 or 0.25% SDS, 1 hour, compared to PBS control) was 99.91%, the Log (Rhinovirus 60, 2268-CV37 [5]; log of Rhinovirus titre after 1 hour with 3% LTX-109 or 0.25% SDS) was 1.2 and the Cytotoxicity (HeLa cells [6]) was “Neat”. For the same molecule, the “% Reduction” value [2] was 99.983%, the Log decrease [2] was 3.67 log and the Rounded % ([2]; rounded % reduction of Rhinovirus infectivity) was 99.9%. The Cytotoxicity (HeLa cells [7]) was “Neat” and the Cytotoxicity (HeLaM cells) was “Neat”.
